Laboratory results: patent US9593108B2, “Compounds and methods for antiviral treatment” (PTC Therapeutics, Inc., priority 2009, dated 2017)

Assays:
[1] = system: HCV replicon RNA (GenBank Accession No. AJ242654); experiment: HCV Replicon Assay (replicon RNA reduction and/or Fluc reporter signal); format: cell-based, Hepatitis C virus; conditions: Hepatitis C virus, 72 h, replicon-containing cells cultured with test compound for up to 3 days
Procedure, shortened: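 IC50 values mostly reflect the drop in replicon RNA, though Fluc reporter signal may also be used. Compound incubated with cells carrying the bicistronic replicon for as long as 3 days; interferon served as positive control.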

Cc1cnc2c(c1)c(C#N)c(-c1ncc(S(=O)(=O)NC(C)C)cn1)n2C1CCC1 [Cpd 78, 2-(3-cyano-1-cyclobutyl-5-methyl-1H-pyrrolo[2,3-b]pyridin-2-yl)-N-(propan-2-yl)pyrimidine-5-sulfonamide]
IC50 [1]: < 0.5 µM | melting point: 187 to 190 °C

Cc1cnc2c(c1)c(C#N)c(-c1ccc(S(=O)(=O)NC(C)(C)C(F)(F)F)cc1)n2C1CCC1 [Cpd 79, 4-(3-cyano-1-cyclobutyl-5-methyl-1H-pyrrolo[2,3-b]pyridin-2-yl)-N-(1,1,1-trifluoro-2-methylpropan-2-yl)benzenesulfonamide]
IC50 [1]: < 0.5 µM | melting point: 180 to 181 °C

C[C@H](NS(=O)(=O)c1ccc(-c2c(C#N)c3cnc(Cl)cc3n2C2CCCC2)nc1)C(F)(F)F [Cpd 80, 6-(6-chloro-3-cyano-1-cyclopentyl-1H-pyrrolo[3,2-c]pyridin-2-yl)-N-[(2S)-1,1,1-trifluoropropan-2-yl]pyridine-3-sulfonamide]
IC50 [1]: < 0.5 µM | melting point: 235 to 237 °C

C[C@@H](NS(=O)(=O)c1ccc(-c2c(C#N)c3cnc(Cl)cc3n2C2CCCC2)nc1)C(F)(F)F [Cpd 81, 6-(6-chloro-3-cyano-1-cyclopentyl-1H-pyrrolo[3,2-c]pyridin-2-yl)-N-[(2R)-1,1,1-trifluoropropan-2-yl]pyridine-3-sulfonamide]
IC50 [1]: < 0.5 µM | melting point: 239 to 240 °C

N#Cc1c(-c2ccc(S(=O)(=O)NC(CF)CF)cn2)n(C2CCCC2)c2cc(Cl)ncc12 [Cpd 82, 6-(6-chloro-3-cyano-1-cyclopentyl-1H-pyrrolo[3,2-c]pyridin-2-yl)-N-(1,3-difluoropropan-2-yl)pyridine-3-sulfonamide]
IC50 [1]: < 0.5 µM | melting point: 231 to 233 °C

N#Cc1c(-c2ccc(S(=O)(=O)NC3(C(F)(F)F)CC3)cn2)n(C2CCCC2)c2cc(Cl)ncc12 [Cpd 83, 6-(6-chloro-3-cyano-1-cyclopentyl-1H-pyrrolo[3,2-c]pyridin-2-yl)-N-[1-(trifluoromethyl)cyclopropyl]pyridine-3-sulfonamide]
IC50 [1]: < 0.5 µM | melting point: 225 to 227 °C

CC1(NS(=O)(=O)c2ccc(-c3c(C#N)c4cnc(Cl)cc4n3C3CCCC3)nc2)CC1 [Cpd 84, 6-(6-chloro-3-cyano-1-cyclopentyl-1H-pyrrolo[3,2-c]pyridin-2-yl)-N-(1-methylcyclopropyl)pyridine-3-sulfonamide]
IC50 [1]: < 0.5 µM | melting point: 209 to 211 °C

CC(C)NS(=O)(=O)c1cnc(-c2c(C#N)c3cnc(Cl)cc3n2C2CCCC2)nc1 [Cpd 85, 2-(6-chloro-3-cyano-1-cyclopentyl-1H-pyrrolo[3,2-c]pyridin-2-yl)-N-(propan-2-yl)pyrimidine-5-sulfonamide]
IC50 [1]: < 0.5 µM | melting point: 249 to 250 °C

N#Cc1c(-c2ncc(S(=O)(=O)NC(CF)CF)cn2)n(C2CCCC2)c2cc(Cl)ncc12 [Cpd 86, 2-(6-chloro-3-cyano-1-cyclopentyl-1H-pyrrolo[3,2-c]pyridin-2-yl)-N-(1,3-difluoropropan-2-yl)pyrimidine-5-sulfonamide]
IC50 [1]: < 0.5 µM | melting point: 224 to 226 °C

C[C@H](NS(=O)(=O)c1ccc(-c2c(C#N)c3cnc(Cl)cc3n2C2CCCC2)cc1)C(F)(F)F [Cpd 87, 4-(6-chloro-3-cyano-1-cyclopentyl-1H-pyrrolo[3,2-c]pyridin-2-yl)-N-[(2S)-1,1,1-trifluoropropan-2-yl]benzenesulfonamide]
IC50 [1]: < 0.5 µM | melting point: 238 to 240 °C

C[C@@H](NS(=O)(=O)c1ccc(-c2c(C#N)c3cnc(Cl)cc3n2C2CCCC2)cc1)C(F)(F)F [Cpd 88, 4-(6-chloro-3-cyano-1-cyclopentyl-1H-pyrrolo[3,2-c]pyridin-2-yl)-N-[(2R)-1,1,1-trifluoropropan-2-yl]benzenesulfonamide]
IC50 [1]: < 0.5 µM | melting point: 239 to 241 °C

N#Cc1c(-c2ccc(S(=O)(=O)NC3(C(F)(F)F)CC3)cc2)n(C2CCCC2)c2cc(Cl)ncc12 [Cpd 89, 4-(6-chloro-3-cyano-1-cyclopentyl-1H-pyrrolo[3,2-c]pyridin-2-yl)-N-[1-(trifluoromethyl)cyclopropyl]benzenesulfonamide]
IC50 [1]: 2 to 5 µM | melting point: 288 to 289 °C

Cc1ccc2c(C#N)c(-c3ccc(S(=O)(=O)N[C@@H](C)C(F)(F)F)cc3)n(C3CCC3)c2n1 [Cpd 90, 4-(3-cyano-1-cyclobutyl-6-methyl-1H-pyrrolo[2,3-b]pyridin-2-yl)-N-[(2S)-1,1,1-trifluoropropan-2-yl]benzenesulfonamide]
IC50 [1]: < 0.5 µM | melting point: 169 to 177 °C

Cc1ccc2c(C#N)c(-c3ccc(S(=O)(=O)NC4(C(F)(F)F)CC4)cn3)n(C3CCC3)c2n1 [Cpd 94, 6-(3-cyano-1-cyclobutyl-6-methyl-1H-pyrrolo[2,3-b]pyridin-2-yl)-N-[1-(trifluoromethyl)cyclopropyl]pyridine-3-sulfonamide]
IC50 [1]: < 0.5 µM | melting point: 230 to 236 °C

Cc1ccc2c(C#N)c(-c3ccc(S(=O)(=O)NC(C)C)nc3)n(C3CCC3)c2n1 [Cpd 96, 5-(3-cyano-1-cyclobutyl-6-methyl-1H-pyrrolo[2,3-b]pyridin-2-yl)-N-(propan-2-yl)pyridine-2-sulfonamide]
IC50 [1]: < 0.5 µM | melting point: 211 to 216 °C

N#Cc1c(-c2ccc(S(=O)(=O)NC(CF)CF)cn2)n(C2CCC2)c2cc(Cl)ncc12 [Cpd 97, 6-(6-chloro-3-cyano-1-cyclobutyl-1H-pyrrolo[3,2-c]pyridin-2-yl)-N-(1,3-difluoropropan-2-yl)pyridine-3-sulfonamide]
IC50 [1]: < 0.5 µM | melting point: 215 to 216 °C

N#Cc1c(-c2ccc(S(=O)(=O)NC3(C(F)(F)F)CC3)cn2)n(C2CCC2)c2cc(Cl)ncc12 [Cpd 98, 6-(6-chloro-3-cyano-1-cyclobutyl-1H-pyrrolo[3,2-c]pyridin-2-yl)-N-[1-(trifluoromethyl)cyclopropyl]pyridine-3-sulfonamide]
IC50 [1]: < 0.5 µM | melting point: 227 to 228 °C

CC1(NS(=O)(=O)c2ccc(-c3c(C#N)c4cnc(Cl)cc4n3C3CCC3)nc2)CC1 [Cpd 99, 6-(6-chloro-3-cyano-1-cyclobutyl-1H-pyrrolo[3,2-c]pyridin-2-yl)-N-(1-methylcyclopropyl)pyridine-3-sulfonamide]
IC50 [1]: < 0.5 µM | melting point: 167 to 168 °C

CC(C)NS(=O)(=O)c1cnc(-c2c(C#N)c3cnc(Cl)cc3n2C2CCC2)nc1 [Cpd 100, 2-(6-chloro-3-cyano-1-cyclobutyl-1H-pyrrolo[3,2-c]pyridin-2-yl)-N-(propan-2-yl)pyrimidine-5-sulfonamide]
IC50 [1]: < 0.5 µM | melting point: 238 to 239 °C

N#Cc1c(-c2ncc(S(=O)(=O)NC(CF)CF)cn2)n(C2CCC2)c2cc(Cl)ncc12 [Cpd 101, 2-(6-chloro-3-cyano-1-cyclobutyl-1H-pyrrolo[3,2-c]pyridin-2-yl)-N-(1,3-difluoropropan-2-yl)pyrimidine-5-sulfonamide]
IC50 [1]: < 0.5 µM | melting point: 237 to 238 °C

C[C@H](NS(=O)(=O)c1ccc(-c2c(C#N)c3cnc(Cl)cc3n2C2CCC2)cc1)C(F)(F)F [Cpd 102, 4-(6-chloro-3-cyano-1-cyclobutyl-1H-pyrrolo[3,2-c]pyridin-2-yl)-N-[(2S)-1,1,1-trifluoropropan-2-yl]benzenesulfonamide]
IC50 [1]: < 0.5 µM | melting point: 202 to 203 °C

C[C@H](NS(=O)(=O)c1ccc(-c2c(C#N)c3ccncc3n2C2CCC2)nc1)C(F)(F)F [Cpd 103, 6-(3-cyano-1-cyclobutyl-1H-pyrrolo[2,3-c]pyridin-2-yl)-N-[(2S)-1,1,1-trifluoropropan-2-yl]pyridine-3-sulfonamide]
IC50 [1]: < 0.5 µM | melting point: 199 to 201 °C

C[C@@H](NS(=O)(=O)c1ccc(-c2c(C#N)c3cc(Cl)ncc3n2C2CCC2)nc1)C(F)(F)F [Cpd 104, 6-(5-chloro-3-cyano-1-cyclobutyl-1H-pyrrolo[2,3-c]pyridin-2-yl)-N-[(2R)-1,1,1-trifluoropropan-2-yl]pyridine-3-sulfonamide]
IC50 [1]: < 0.5 µM | melting point: 181 to 185 °C

C[C@@H](NS(=O)(=O)c1ccc(-c2c(C#N)c3cc(Cl)ncc3n2C2CCC2)cc1)C(F)(F)F [Cpd 105, 4-(5-chloro-3-cyano-1-cyclobutyl-1H-pyrrolo[2,3-c]pyridin-2-yl)-N-[(2R)-1,1,1-trifluoropropan-2-yl]benzenesulfonamide]
IC50 [1]: < 0.5 µM | melting point: 248 to 250 °C

N#Cc1c(-c2ccc(S(=O)(=O)NC3CC3)cn2)n(C2CCC2)c2cnc(Cl)cc12 [Cpd 106, 6-(5-chloro-3-cyano-1-cyclobutyl-1H-pyrrolo[2,3-c]pyridin-2-yl)-N-cyclopropylpyridine-3-sulfonamide]
IC50 [1]: < 0.5 µM | melting point: 170 to 172 °C

C[C@@H](NS(=O)(=O)c1ccc(-c2c(C#N)c3cc(C#N)cnc3n2C2CCC2)nc1)C(F)(F)F [Cpd 107, 6-(3,5-dicyano-1-cyclobutyl-1H-pyrrolo[2,3-b]pyridin-2-yl)-N-[(2R)-1,1,1-trifluoropropan-2-yl]pyridine-3-sulfonamide]
IC50 [1]: < 0.5 µM | melting point: 202 to 203 °C

C[C@H](NS(=O)(=O)c1ccc(-c2c(C#N)c3cc(C#N)cnc3n2C2CCC2)nc1)C(F)(F)F [Cpd 108, 6-(3,5-dicyano-1-cyclobutyl-1H-pyrrolo[2,3-b]pyridin-2-yl)-N-[(2S)-1,1,1-trifluoropropan-2-yl]pyridine-3-sulfonamide]
IC50 [1]: < 0.5 µM | melting point: 203 to 204 °C

C[C@H](NS(=O)(=O)c1cnc(-c2c(C#N)c3cc(C#N)cnc3n2C2CCC2)nc1)C(F)(F)F [Cpd 109, 2-(3,5-dicyano-1-cyclobutyl-1H-pyrrolo[2,3-b]pyridin-2-yl)-N-[(2S)-1,1,1-trifluoropropan-2-yl]pyrimidine-5-sulfonamide]
IC50 [1]: < 0.5 µM | melting point: 216 to 219 °C

C[C@H](NS(=O)(=O)c1ccc(-c2c(C#N)c3cc(C#N)cnc3n2C2CCC2)cc1)C(F)(F)F [Cpd 110, 4-(3,5-dicyano-1-cyclobutyl-1H-pyrrolo[2,3-b]pyridin-2-yl)-N-[(2S)-1,1,1-trifluoropropan-2-yl]benzenesulfonamide]
IC50 [1]: < 0.5 µM | melting point: 241 to 243 °C
